The values that follow come from patent US20250195504A1, “NALTREXAMINE DERIVATIVES BEARING 5-MEMBER HETEROCYCLIC RING SYSTEMS AND OPIOID RECEPTOR MODULATORS” (VIRGINIA COMMONWEALTH UNIVERSITY, priority 2022, published 2025).

One experiment concerns the target KOR (Mus musculus, UniProt P33534). Kind of experiment: competitive radioligand binding assay, KOR ([3H]diprenorphine, CHO cell membranes). Details: expressed in transfected cells; host or cells: CHO. The settings on record: Tables A, B; read-out: Binding Affinity Ki (nM) ± SEM, KOR.
In the next experiment the target is h5-HT2b (Homo sapiens, UniProt P41595). Kind of experiment: side effect profiling, h5-HT2b. The settings on record: at 10 uM. It counts as binding.
The target of the next experiment is Na channel. In words: side effect profiling, Na channel. It counts as binding.
Another experiment has as its target hα1D (Homo sapiens, UniProt P25100). In words: side effect profiling, hα1D. In kind it is binding.

Where a name gives a salt, the structure may show the parent alone.

`O=C(N[C@H]1CC[C@@]2(O)[C@H]3Cc4ccc(O)c5c4[C@@]2(CCN3CC2CC2)[C@H]1O5)c1nccs1` [NTZ, 17-Cyclopropylmethyl-3,14β-dihydroxy-4,5α-epoxy-6α-(2′-thiazolylcarboxamido)morphinan hydrochloride]: the Ki on KOR was 1.3 ± 0.12 nM.

As for `O=C(N[C@H]1CC[C@@]2(O)[C@H]3Cc4ccc(O)c5c4[C@@]2(CCN3CC2CC2)[C@H]1O5)c1cccs1` [Example 1 compound 25, 17-Cyclopropylmethyl-3,14β-dihydroxy-4,5α-epoxy-6α-(2′-thienylcarboxamido)morphinan hydrochloride], on h5-HT2b, the h5-HT2b binding entry is given as “h5-HT2b (78% at 10 uM)”. The molecule also displayed an inhibition constant (Ki) on Na channel of 9900 nM. In the experiment on Na channel (at 10 uM), this molecule registered a Na channel binding of 55%.

The molecule `O=C(N[C@H]1CCC2(O)C3Cc4ccc(O)c5c4[C@@]2(CCN3CC2CC2)[C@H]1O5)c1ccc[nH]1` (stereo partly drawn) [Example 1 compound 1, 17-Cyclopropylmethyl-3,14β-dihydroxy-4,5α-epoxy-6a-[(2′-pyrrolyl)carboxamido]morphinan hydrochloride] came in with an inhibition constant (Ki) at hα1D of 771 nM. On hα1D (at 10 uM), the hα1D binding turned out to be 84%.

Usually Ki stands for the dissociation constant of the complex between target and ligand, obtained from inhibition or displacement.
